Test results as given in patent publication EP0642504B1 (priority 1991, dated 1993).
Marks after values point to notes of the source that are not given here.

Assays:
mouse [1] = assay: Ring test for cataleptic effects; format: in vivo; conditions: 5-min test period, vehicle 7.7 ± 4.4
Protocol: The lack of CNS activity for the compounds described herein may be seen from the data shown in Table V. This was measured by the so-called "ring test" [Pertwee, R.G., et al., J. Pharmacol., 46, 753 (1972)] in which the cataleptic effects of cannabinoids can be quantitated. The compounds produced little or no response when compared with the parent drug.
The cataleptic response was measured using the ring test. Mice were placed on a horizontal wire ring 5.5 cm in diameter, which was attached to a 16 cm vertical rod. The hind paws and fore paws were placed at opposite sides of the ring. It is important that the ambient temperature is maintained at 30°C and that the environment be free of auditory stimuli and bright lights. The criteria for immobility are detailed by Pertwee. The response is calculated as the fraction of time the mouse is immobile over a 5-min test period. Measurements were always done between 2 and 4 p.m. and the animals were used only once.

[2] = system: Arachidonic Acid-Induced Paw Edema; assay: Arachidonic acid-induced paw edema (water displacement); format: in vivo, CD-1 female mice; conditions: for percent inhibition of paw edema: oral, 30 min after arachidonic acid (1.0 mg s.c.), vs vehicle treated controls
Protocol: The induction of paw edema in rodents by injection of arachidonic acid has been used as an experimental model for inflammation [Calhoun, W., et al., Agents and Actions, 21, 306 (1987)]. Prior administration of non-steroidal anti-inflammatory drugs (NSAIDs) in many cases leads to a dose related inhibition of the edematous response which may be considered a predictor of clinical efficacy.
(§1) The conditions were based on those reported previously [Calhoun et al., ibid.]. […] PAF (1.0 µg) or arachidonic acid (1.0 mg) dissolved in 50 µl of 5% ethanol in saline, were injected s.c. into the plantar surface of the right hind paw of CD-1 female mice (20-25 g) obtained from Charles River Labs. The mice were under ether anesthesia during this procedure. The volume of the right foot was measured to the level of the lateral malleous by water displacement before treatment and 15 min after PAF injection or 30 min after archidonate injection. The change in paw volume was calculated for each mouse and the significance for each group was determined by a paired t test analysis.

PAF-Induced Paw Edema = assay: PAF-induced paw edema (water displacement); format: in vivo, CD-1 female mice; conditions: for percent inhibition of paw edema: oral, 15 min after PAF (1.0 µg s.c.), vs vehicle treated controls
Protocol: A second model, in which edema is induced by platelet activating factor (PAF), was used to evaluate activity.
as §1

peritoneal leukocytes = assay: Leukocyte adhesion assay, peritoneal cells collected after oral dosing; format: in vivo, CD-1 mice
Protocol: Leukocytes are thought to be major contributors to the inflammatory response and their ability in this regard is reflected by their adhesiveness to a variety of substrates [Audette, C.A., et al., Life Sci., 47, 753 (1990)].
The details of the leukocytes adhesion assay have been previously reported [Audette et al., ibid.]. In brief, peritoneal cells from femals CD-1 mice (20-25 g) were collected at 90 min following oral administration of the drug or vehicle (50 µl peanut oil). Cells from each treatment group (N=3) were pooled and equal numbers aliquoted into six culture dish wells (1.9 cm^2 area). After incubation for 18-20 hours, non-adhering cells were removed and the remaining cell monolayer quantitated by DNA measurement.

mouse [3] = assay: Mouse hot plate test (55°C) for antinociception; format: in vivo
Protocol: In the hot plate test for analgesia an aluminum surface was maintained at 55 ± 1°C by circulating water through passages in the metal. A clear plastic cylinder 18 cm in diameter and 26 cm high was placed on the surface to prevent escape. The end point was taken when the mouse either performed a hind paw lick or jumped off the surface; in no case were the animals kept for more than 30 secs on the plate. Mice were never used more than one time; control values were always measured at 11 a.m. and test values at 2 p.m. The drugs were administered orally 90 min before the hot plate test. The percent change in response time (latency) was calculated by comparing the mean of the control values with the mean of the test values and statistical signficance determined by a paired t-test analysis using software (Statview, 512) from Brainpower, Inc., Calabasas, Ca.

[4] = system: picrotoxin induced lethality; assay: Protection against picrotoxin induced lethality; format: in vivo, Balb/c male mice; conditions: drug 10 mg/kg, 120 min before picrotoxin (8 mg/kg) s.c.; no drug 0/17
Text: (§2) The present compounds are active in several tests generally used to indicate neuroprotection.

[5] = system: N-methyl-D-aspartate (NMDA) induced lethality; assay: Protection against NMDA induced lethality; format: in vivo, Balb/c male mice; conditions: drug 10 mg/kg, 90 min before NMDA (125 mg/kg) s.c.; no drug 0/20
Text: as §2

[6] = system: forebrain ischemia (unilateral occlusion); assay: Forebrain ischemia (unilateral occlusion); format: in vivo; conditions: mongolian gerbils
Text: as §2

intraocular pressure = assay: Reduction of intraocular pressure (anti-glaucoma activity); format: in vivo, rabbits; conditions: 50 µl drop of a 1% emulsion into the rabbit eye
Protocol: Reduction of intraocular pressure in rabbits was determined by the addition of a 50 µl drop of a 1% emulsion of the cannabinoid into the rabbit eye. This test is a measure of anti-glaucomatic activity.

[7] = dose 0.05 mg/kg oral, cells collected 90 min after administration
[8] = dose 0.05 mg/kg oral, cells collected 90 min after administration, 18-20 hours incubation
[9] = dose 0.10 mg/kg oral, cells collected 90 min after administration
[10] = dose 0.10 mg/kg oral, cells collected 90 min after administration, 18-20 hours incubation
[11] = dose 0.50 mg/kg oral, cells collected 90 min after administration
[12] = dose 0.50 mg/kg oral, cells collected 90 min after administration, 18-20 hours incubation
[13] = dose 1.00 mg/kg oral, cells collected 90 min after administration
[14] = dose 1.00 mg/kg oral, cells collected 90 min after administration, 18-20 hours incubation
[15] = dose 0.25 mg/kg orally 90 min before the hot plate test
[16] = dose 0.50 mg/kg orally 90 min before the hot plate test
[17] = dose 1.0 mg/kg orally 90 min before the hot plate test

Compound	percent inhibition of paw edema (PAF-Induced Paw Edema; dose 0.5 mg/kg)	adhering cells, percent of control (peritoneal leukocytes; [7])	number of adhering cells x 10^-6 ± S.D. (peritoneal leukocytes; [8])	adhering cells, percent of control (peritoneal leukocytes; [9])	number of adhering cells x 10^-6 ± S.D. (peritoneal leukocytes; [10])	adhering cells, percent of control (peritoneal leukocytes; [11])	number of adhering cells x 10^-6 ± S.D. (peritoneal leukocytes; [12])	adhering cells, percent of control (peritoneal leukocytes; [13])	number of adhering cells x 10^-6 ± S.D. (peritoneal leukocytes; [14])	percent change in latency (mouse [3]; [15])	percent change in latency (mouse [3]; [16])	percent change in latency (mouse [3]; [17])	Survival rate (number of survivors out of total number of animals used) [4]	Survival rate (number of survivors out of total number of animals used) [5]	protection against forebrain ischemia [6]	other results
CCCCCc1cc(O)c2c(c1)OC(C)(C)[C@@H]1CCC(C)=C[C@@H]21 [Δ^1-THC, reference compound]	–	–	–	–	–	–	–	–	–	–	–	–	–	–	–	Response ± SD (means of the fraction of time the mice remained immobile) (mouse [1]; dose 40 mg/kg): 48.9 ± 16
CCCCCCC(C)(C)c1cc(O)c2c(c1)OC(C)(C)[C@H]1CC=C(C(=O)O)C[C@H]21 [HU-235]	60.1* percent	102% of control	1.29±0.05 x 10^-6	110% of control	1.38±0.17 x 10^-6	116% of control	1.46±0.05 x 10^-6	56% of control	0.70±0.12 x 10^-6	61.5(17)** percent	51.7(8)* percent	14.7(5) percent	8/12	7/10	protect against forebrain ischemia	reduction of paw edema (result in words) ([2]; arachidonic acid model, summary of Table 1): effective in reducing paw edema; percent inhibition of paw edema ([2]; dose 0.050 mg.kg): 42.1 (N.S.) percent; percent inhibition of paw edema ([2]; dose 0.100 mg.kg): 65.8* percent; percent inhibition of paw edema ([2]; dose 0.250 mg.kg): 52.6* percent; percent inhibition of paw edema ([2]; dose 0.55 mg.kg): 47.4%; percent inhibition of paw edema (PAF-Induced Paw Edema; dose 0.05 mg/kg): 44.4 (N.S.) percent; percent inhibition of paw edema (PAF-Induced Paw Edema; dose 0.10 mg/kg): 38.7* percent; percent inhibition of paw edema (PAF-Induced Paw Edema; dose 0.25 mg/kg): 31.9* percent; activity against PAF-induced edema (result in words) (PAF-Induced Paw Edema; summary of Table II): active; adhering cells, percent of control (peritoneal leukocytes; dose 0.01 mg/kg oral, cells collected 90 min after administration): 106% of control; number of adhering cells x 10^-6 ± S.D. (peritoneal leukocytes; dose 0.01 mg/kg oral, cells collected 90 min after administration, 18-20 hours incubation): 1.34±0.14 x 10^-6; percent change in latency (mouse [3]; dose 0.025 mg/kg orally 90 min before the hot plate test): 10.3(5) percent; percent change in latency (mouse [3]; dose 0.050 mg/kg orally 90 min before the hot plate test): 61.7(5)* percent; percent change in latency (mouse [3]; dose 0.10 mg/kg orally 90 min before the hot plate test): 49.5(20)* percent; Response ± SD (means of the fraction of time the mice remained immobile) (mouse [1]; dose 0.25 mg/kg): 12.3 ± 10.3; Response ± SD (means of the fraction of time the mice remained immobile) (mouse [1]; dose 0.5 mg/kg): 13.8 ± 7.9; Response ± SD (means of the fraction of time the mice remained immobile) (mouse [1]; dose 1.0 mg/kg): 10.4 ± 10.6; Response ± SD (means of the fraction of time the mice remained immobile) (mouse [1]; dose 4.0 mg/kg): 8.7 ± 5.6; Reduction of intraocular pressure (intraocular pressure): Significant reduction
CCCCCCC(C)(C)c1cc(O)c2c(c1)OC(C)(C)[C@H]1CC=C(CO)C[C@H]21 [HU-211, reference compound]	37.5%	124% of control	1.09±0.08 x 10^-6	50% of control	0.44±0.03 x 10^-6	73% of control	0.64±0.06 x 10^-6	67% of control	0.59±0.06 x 10^-6	30.0(5)* percent	72.5(5)*** percent	-10.2(5) percent	6/10	11/16	protect against forebrain ischemia	percent inhibition of paw edema (PAF-Induced Paw Edema; dose 1.0 mg/kg): 21.9%
CCCCCc1cc(O)c2c(c1)OC(C)(C)[C@@H]1CC=C(C(=O)O)C[C@@H]21 [Δ^6-THC-7-oic acid, reference compound]	–	–	–	–	–	–	–	–	–	–	–	–	–	–	–	percent inhibition of paw edema (PAF-Induced Paw Edema; dose 40.0 mg/kg): 50.2%
THC-7-oic Acid [reference compound]	–	–	–	–	–	–	–	–	–	–	–	–	–	–	–	number of adhering cells x 10^-6 ± S.D. (peritoneal leukocytes; dose 20 mg/kg oral, cells collected 90 min after administration, own control 0.81±0.03): 0.67±0.02 x 10^-6; adhering cells, percent of control (peritoneal leukocytes; dose 20 mg/kg oral, own control 0.81±0.03): 90.6% of control; number of adhering cells x 10^-6 ± S.D. (peritoneal leukocytes; dose 40 mg/kg oral, cells collected 90 min after administration, own control 0.81±0.03): 0.55±0.22 x 10^-6; adhering cells, percent of control (peritoneal leukocytes; dose 40 mg/kg oral, own control 0.81±0.03): 67.9% of control
